{"source": "patent US20060111335A1", "about": "“Photoactivated anti-viral and anti-cancer agent” (priority 2002, published 2006)", "origin": "cited, not measured here", "key": {"[1]": {"conditions": "cited from earlier work"}, "Sindbis virus": {"tested_on": "Sindbis virus", "conditions": "cited from earlier work"}, "DNA": {"tested_on": "DNA", "conditions": "dark; cited from earlier work"}, "cell": {"tested_on": "cell", "conditions": "cited from earlier work"}, "protein": {"tested_on": "protein", "conditions": "cited from earlier work"}, "bacteriophage φ6": {"tested_on": "bacteriophage φ6", "conditions": "cited from earlier work"}, "nucleic acid": {"tested_on": "nucleic acid", "conditions": "cited from earlier work"}}, "note": "Read-outs that look alike come from different tables or passages of the source."}
{"smiles": "[Cl-].[Cl][Rh+]12([Cl])([N]=c3c(c4ccccc4c4ccccc34)=[N]1)[N]1C=CC=c3ccc4c(c31)[N]2C=CC=4", "note": "[PHENPHI, cis-dichloro(1,10-phenanthroline)(9,10-phenathrenequinone diimine)rhodium(III) chloride]", "values": [{"measurement": "stability", "setting": "[1]; 37° C., phosphate-buffered saline (PBS) pH 7", "result": "decomposing"}, {"measurement": "ligand exchange", "setting": "[1]; acetate buffer pH 5", "result": "readily substitutes acetate for chloride ligand"}, {"measurement": "stability", "setting": "[1]; room temperature, Tris buffer pH 7", "result": "decomposing"}, {"measurement": "phototoxicity / virucidal activity against Sindbis virus", "setting": "Sindbis virus", "result": "potent virucidal activity"}, {"measurement": "Keq of dark association with DNA", "setting": "DNA", "result": 37000, "unit": "M⁻¹"}, {"measurement": "photoinduced cell death", "setting": "cell", "result": "substantial photoinduced cell death"}, {"measurement": "penetration of the cell membrane", "setting": "cell; without liposomes", "result": "does not require liposomes to penetrate the cell membrane"}, {"measurement": "binding affinity for protein", "setting": "protein", "result": "substantial binding affinity for protein"}, {"measurement": "activity against bacteriophage φ6", "setting": "bacteriophage φ6", "result": "potent virucidal activity"}, {"measurement": "photonuclease activity", "setting": "nucleic acid", "result": "exhibited photonuclease activity"}, {"measurement": "covalent binding to nucleic acid upon irradiation", "setting": "nucleic acid; irradiated with light", "result": "covalently binds to DNA"}]}
